Laboratory results published in PubChem BioAssay AID310 (DTP/NCI, 2004).
“And” between values parts separate entries of the source, which are not always exact repeats. Equal values may be shown once. Inconclusive results are not listed.

Tested on: C3AKF1 mice, osteogenic sarcoma HE10734 s.c., tumor weight T/C
Experiment: NCI In Vivo Anticancer Drug Screen. Data for tumor model Osteogenic Sarcoma HE 10734 (subcutaneous) in C3AKF1 (CHKRF1) mice
Conditions: endpoint: mean tumor weight, schedule: Q01DX010 (ip), higher = larger tumour
Method: The antitumor activity of compounds was measured in mice bearing transplantable tumors. Survival or tumor size were measured and the results are expressed as the measurement made in the treated group (T) divided by the measurement made in the vehicle treated control group (C). The tumor model used in this assay is Osteogenic Sarcoma HE 10734 (subcutaneous) in C3AKF1 (CHKRF1) mice

[1] = dose: 62.0 mg/kg/injection, vehicle: saline
[2] = dose: 125.0 mg/kg/injection, vehicle: saline
[3] = dose: 25.0 mg/kg/injection, vehicle: saline
[4] = dose: 50.0 mg/kg/injection, vehicle: saline
[5] = dose: 100.0 mg/kg/injection, vehicle: saline
[6] = dose: 200.0 mg/kg/injection, vehicle: saline
[7] = dose: 30.0 mg/kg/injection, vehicle: carboxymethylcellulose (CMC)
[8] = dose: 250.0 mg/kg/injection, vehicle: saline
[9] = dose: 500.0 mg/kg/injection, vehicle: saline
[10] = dose: 20.0 mg/kg/injection, vehicle: saline
[11] = dose: 40.0 mg/kg/injection, vehicle: saline
[12] = dose: 200.0 mg/kg/injection, vehicle: carboxymethylcellulose (CMC)
[13] = dose: 75.0 mg/kg/injection, vehicle: saline
[14] = dose: 150.0 mg/kg/injection, vehicle: saline
[15] = dose: 300.0 mg/kg/injection, vehicle: saline
[16] = dose: 22.0 mg/kg/injection, vehicle: carboxymethylcellulose (CMC)
[17] = dose: 120.0 mg/kg/injection, vehicle: saline

C=CCn1c(=O)n(CC=C)c(=O)n(CC=C)c1=O
T/C (dose: 31.0 mg/kg/injection, vehicle: saline): 84 % of control | T/C [1]: 94 % of control | T/C [2]: 69 % of control | T/C (dose: 375.0 mg/kg/injection, vehicle: saline): 31 % of control

CC(C)Sc1nc(N)nc2nc[nH]c12
T/C [3]: 71 % of control | T/C [4]: 83 % of control | T/C [5]: 76 % of control | T/C [6]: 23 % of control

CN(C)CCCN1c2ccccc2Sc2ccc(C(F)(F)F)cc21
T/C (dose: 12.0 mg/kg/injection, vehicle: saline): 90 % of control | T/C [3]: 90 % of control

CCc1c(CC(=O)O)c2cc(C)ccc2n1Cc1ccc(Cl)cc1
T/C [4]: 79 % of control

CCOC(=O)Sc1ncnc2nc[nH]c12
T/C (dose: 112.0 mg/kg/injection, vehicle: carboxymethylcellulose (CMC)): 13 % of control

CCCCn1cnc2c(SC)nc(N)nc21
T/C [7]: 69 % of control | T/C (dose: 115.0 mg/kg/injection, vehicle: carboxymethylcellulose (CMC)): 71 % of control

Fc1ccc(CSc2ncnc3c2ncn3C2CCCCO2)cc1 (stereo not given)
T/C [1]: 81 % of control | T/C [2]: 71 % of control | T/C [8]: 93 % of control | T/C [9]: 28 % of control

CSc1ncnc2c1ncn2C1CCCO1 (stereo not given)
T/C [10]: 76 % of control | T/C [11]: 83 % of control | T/C (dose: 160.0 mg/kg/injection, vehicle: saline): 44 % of control

CCCn1cnc2c(SCc3ccccc3Cl)nc(N)nc21
T/C (dose: 100.0 mg/kg/injection, vehicle: carboxymethylcellulose (CMC)): 86 % of control | T/C [12]: 87 % of control | T/C (dose: 400.0 mg/kg/injection, vehicle: carboxymethylcellulose (CMC)): 55 % of control

CCC(=O)NC1=C(N2CC2)C(=O)C(NC(=O)CC)=C(N2CC2)C1=O
T/C (dose: 0.26 mg/kg/injection, vehicle: saline): 118 % of control | T/C (dose: 0.4 mg/kg/injection, vehicle: saline): 77 % of control | T/C (dose: 1.2 mg/kg/injection, vehicle: saline): 30 % of control

CCCCCCC(=O)NC1=C(N2CC2)C(=O)C(NC(=O)CCCCCC)=C(N2CC2)C1=O
T/C (dose: 15.0 mg/kg/injection, vehicle: carboxymethylcellulose (CMC)): 104 % of control | T/C [7]: 83 % of control | T/C (dose: 60.0 mg/kg/injection, vehicle: carboxymethylcellulose (CMC)): 50 % of control | T/C (dose: 120.0 mg/kg/injection, vehicle: carboxymethylcellulose (CMC)): 33 % of control

O=C(O)c1ccc(-c2ccccc2)cc1
T/C [12]: 70 % of control

CC1(C)CC(C)(c2ccccc2)c2ccccc21 (stereo not given)
T/C [13]: 92 % of control | T/C [14]: 70 % of control | T/C [15]: 52 % of control

CCCCCCCCCCCCCCCCC(C(=O)O)C(O)(CC(=O)O)C(=O)O (stereo not given)
T/C [16]: 100 % of control | T/C (dose: 35.0 mg/kg/injection, vehicle: carboxymethylcellulose (CMC)): 68 % of control

NC(CCSCc1ccc(N(CCCl)CCCl)cc1)C(=O)O (stereo not given)
T/C (dose: 4.5 mg/kg/injection, vehicle: saline): 74 % of control | T/C (dose: 9.0 mg/kg/injection, vehicle: saline): 105 % of control and 118 % of control | T/C (dose: 54.0 mg/kg/injection, vehicle: saline): 39 % of control

O=c1[nH]cnc2n[nH]nc12
T/C [13]: 80 % of control | T/C [14]: 103 % of control | T/C [15]: 87 % of control | T/C (dose: 600.0 mg/kg/injection, vehicle: saline): 99 % of control

O=S1(=O)CCCO1
T/C (dose: 40.0 mg/kg/injection, vehicle: carboxymethylcellulose (CMC)): 75 % of control | T/C (dose: 80.0 mg/kg/injection, vehicle: carboxymethylcellulose (CMC)): 76 % of control

CC(/C=N/N=C(N)N)=N/N=C(N)N
T/C (dose: 12.5 mg/kg/injection, vehicle: saline): 85 % of control | T/C [3]: 63 % of control

ClCCn1cnc2c(SCc3ccccc3)ncnc21
T/C [3]: 75 % of control | T/C [4]: 64 % of control | T/C [5]: 56 % of control | T/C [15]: 69 % of control | T/C (dose: 450.0 mg/kg/injection, vehicle: saline): 65 % of control

CCCCCCCCCCCCCS
T/C [3]: 76 % of control | T/C [4]: 87 % of control | T/C [5]: 82 % of control | T/C [6]: 89 % of control

Nc1nc(SCc2ccc([N+](=O)[O-])cc2)c2[nH]cnc2n1
T/C [2]: 86 % of control | T/C [8]: 89 % of control | T/C [9]: 58 % of control | T/C (dose: 1000.0 mg/kg/injection, vehicle: saline): 59 % of control

Nc1nc(N)c(N=O)c(Nc2ccc(Br)cc2)n1
T/C [16]: 94 % of control | T/C (dose: 44.0 mg/kg/injection, vehicle: carboxymethylcellulose (CMC)): 66 % of control | T/C (dose: 88.0 mg/kg/injection, vehicle: carboxymethylcellulose (CMC)): 62 % of control | T/C (dose: 175.0 mg/kg/injection, vehicle: carboxymethylcellulose (CMC)): 58 % of control and 61 % of control | T/C (dose: 265.0 mg/kg/injection, vehicle: carboxymethylcellulose (CMC)): 33 % of control | T/C (dose: 395.0 mg/kg/injection, vehicle: carboxymethylcellulose (CMC)): 34 % of control

COc1ccc(-c2c(CC(=O)O)c3cc(OC)ccc3n2Cc2ccc(Cl)cc2)cc1
T/C (dose: 125.0 mg/kg/injection, vehicle: carboxymethylcellulose (CMC)): 116 % of control | T/C (dose: 250.0 mg/kg/injection, vehicle: carboxymethylcellulose (CMC)): 66 % of control | T/C (dose: 500.0 mg/kg/injection, vehicle: carboxymethylcellulose (CMC)): 54 % of control | T/C (dose: 1000.0 mg/kg/injection, vehicle: carboxymethylcellulose (CMC)): 56 % of control

O=C1N(Cl)C(=O)C(c2ccc(Cl)cc2)(c2ccc(Cl)cc2)N1Cl
T/C (dose: 10.0 mg/kg/injection, vehicle: saline): 70 % of control | T/C [10]: 58 % of control | T/C [11]: 90 % of control | T/C (dose: 80.0 mg/kg/injection, vehicle: saline): 67 % of control and 77 % of control | T/C [17]: 48 % of control | T/C (dose: 180.0 mg/kg/injection, vehicle: saline): 55 % of control | T/C (dose: 270.0 mg/kg/injection, vehicle: saline): 53 % of control

c1cc2n(n1)CCN2
T/C (dose: 30.0 mg/kg/injection, vehicle: saline): 100 % of control | T/C (dose: 60.0 mg/kg/injection, vehicle: saline): 68 % of control | T/C [17]: 40 % of control

Nc1nc(SCc2ccccc2Cl)c2ncn(C3OC(CO)C(O)C3O)c2n1 (stereo not given)
T/C (dose: 12.5 mg/kg/injection, vehicle: carboxymethylcellulose (CMC)): 90 % of control | T/C (dose: 25.0 mg/kg/injection, vehicle: carboxymethylcellulose (CMC)): 81 % of control | T/C (dose: 50.0 mg/kg/injection, vehicle: carboxymethylcellulose (CMC)): 61 % of control

O=c1[nH]c2cc(Cl)c(Cl)cc2o1
T/C (dose: 10.0 mg/kg/injection, vehicle: carboxymethylcellulose (CMC)): 84 % of control | T/C (dose: 16.0 mg/kg/injection, vehicle: carboxymethylcellulose (CMC)): 113 % of control | T/C (dose: 24.0 mg/kg/injection, vehicle: carboxymethylcellulose (CMC)): 74 % of control | T/C (dose: 37.0 mg/kg/injection, vehicle: carboxymethylcellulose (CMC)): 105 % of control and 117 % of control | T/C (dose: 55.0 mg/kg/injection, vehicle: carboxymethylcellulose (CMC)): 80 % of control | T/C (dose: 85.0 mg/kg/injection, vehicle: carboxymethylcellulose (CMC)): 98 % of control
